The values below come from ChEMBL document CHEMBL3603836, “Hybrid pyrimidine alkynyls inhibit the clinically resistance related Bcr-Abl(T315I) mutant” (Bioorg Med Chem Lett, 2015).

By IC50 is commonly meant the concentration that gives 50% inhibition. A lower IC50 goes with greater potency in that assay.

Series [1] relates to K562. Kind of series: Antitumor activity against human K562 cells expressing wild type Bcr-Abl xenografted in mouse assessed as complete eradication of tumor at 10 mg/kg, po qd for 8 days. Format: functional, organism-based. (In xenograft studies the graft and the host belong to different species.)
Series [2] deals with Tyrosine-protein kinase ABL1 (Mus musculus), P00520 [T315I]. As to the kind of experiment: Inhibition of Bcr-Abl T315I mutant in mouse BA/F3 cells assessed as reduction of STAT5 phosphorylation at 4 to 500 nM after 4 hrs by Western blot analysis. Type of series: cell-based. Conditions: BaF3.
Tyrosine-protein kinase ABL1 (Mus musculus), P00520 [T315I], sequence (P00520 whole entry T315I): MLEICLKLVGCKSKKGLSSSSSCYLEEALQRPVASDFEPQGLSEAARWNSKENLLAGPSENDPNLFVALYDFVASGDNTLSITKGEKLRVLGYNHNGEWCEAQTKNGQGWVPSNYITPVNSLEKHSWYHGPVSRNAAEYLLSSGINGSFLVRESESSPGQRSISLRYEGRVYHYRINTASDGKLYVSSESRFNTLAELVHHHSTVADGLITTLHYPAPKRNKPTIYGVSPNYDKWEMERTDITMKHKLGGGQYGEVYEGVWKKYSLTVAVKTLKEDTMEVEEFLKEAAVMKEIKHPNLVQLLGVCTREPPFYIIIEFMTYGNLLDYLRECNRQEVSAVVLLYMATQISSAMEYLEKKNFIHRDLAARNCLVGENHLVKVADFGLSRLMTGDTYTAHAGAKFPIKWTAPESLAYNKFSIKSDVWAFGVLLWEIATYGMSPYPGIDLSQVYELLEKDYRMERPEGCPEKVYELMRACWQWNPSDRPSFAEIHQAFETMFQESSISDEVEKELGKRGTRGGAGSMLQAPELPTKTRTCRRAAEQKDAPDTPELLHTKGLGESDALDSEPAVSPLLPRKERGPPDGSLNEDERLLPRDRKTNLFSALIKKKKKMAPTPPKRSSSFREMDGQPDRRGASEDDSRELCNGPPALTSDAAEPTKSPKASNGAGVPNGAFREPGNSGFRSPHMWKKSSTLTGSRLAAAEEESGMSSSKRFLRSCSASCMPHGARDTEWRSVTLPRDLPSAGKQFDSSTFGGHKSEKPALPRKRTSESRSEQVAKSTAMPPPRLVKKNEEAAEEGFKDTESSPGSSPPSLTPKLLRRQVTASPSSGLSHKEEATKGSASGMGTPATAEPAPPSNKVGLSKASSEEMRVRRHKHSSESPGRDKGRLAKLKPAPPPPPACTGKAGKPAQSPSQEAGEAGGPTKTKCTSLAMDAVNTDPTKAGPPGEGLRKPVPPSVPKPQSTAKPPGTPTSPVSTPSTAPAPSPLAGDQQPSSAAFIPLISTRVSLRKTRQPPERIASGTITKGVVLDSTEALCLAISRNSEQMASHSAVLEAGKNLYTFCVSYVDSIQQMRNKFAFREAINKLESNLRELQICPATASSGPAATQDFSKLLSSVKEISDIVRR
Series [3] can be described thus: Cell cycle arrest in mouse BA/F3 cells expressing Bcr-Abl T315I mutant assessed as accumulation at G0/G1 phase at 20 nM after 24 hrs using propidium iodide staining by flow cytometry (reference value: 51.92%). Type of series: functional, cell-based. Conditions: BaF3. (Flow cytometry measures light scatter and fluorescence of single cells or particles in a stream.)

Series [4] has as its target Bcr/Abl fusion protein (Homo sapiens, UniProt P00519). Type of series: protein assay.
Description: Inhibition of wild type Bcr-Abl (unknown origin) using Tyr2 peptide substrate after 2 hrs by FRET-based Z'-lyte assay
Series [5] has as its system K562. Kind of series: Antitumor activity against human K562 cells expressing wild type Bcr-Abl xenografted in mouse assessed as sign of tumor recurrence at 10 mg/kg, po qd for 16 days measured after 7 days of last dose. Type of series: functional, organism-based.
Series [6] relates to BaF3. Kind of series: Antitumor activity against mouse BA/F3 cells expressing Bcr-Abl T315I mutant allografted in mouse assessed as tumor regression at 30 mg/kg, qd for 16 days. Format: functional, organism-based.
For series [7], the system named is Tyrosine-protein kinase ABL1 (Mus musculus), P00520 [T315I]. Kind of series: Inhibition of Bcr-Abl T315I mutant in mouse BA/F3 cells assessed as total protein level of Bcr-Abl at 4 to 500 nM after 4 hrs by Western blot analysis. Type of series: cell-based. The conditions noted are these: BaF3. For orientation: Immunoblotting shows a protein as a band on a membrane.

Series [8] has the same test system. As to the kind of experiment: Inhibition of Bcr-Abl T315I mutant in mouse BA/F3 cells assessed as total protein level of STAT5 at 4 to 500 nM after 4 hrs by Western blot analysis. Format: cell-based. Conditions: BaF3.
Series [9] shares this test system. Kind of series: Inhibition of Bcr-Abl T315I mutant in mouse BA/F3 cells assessed as total protein level of CRKL at 4 to 500 nM after 4 hrs by Western blot analysis. Type of series: cell-based. Conditions: BaF3.
The subject of series [10] is BaF3. As to the kind of experiment: Induction of apoptosis in mouse BA/F3 cells expressing Bcr-Abl T315I mutant assessed as late apoptotic cells after 24 hrs using annexin-V/7-AAD staining by FACS analysis. Format: functional, cell-based.
The test system of a further series is Rattus norvegicus. Kind of series: AUC (0 to infinity) in Sprague-Dawley rat at 10 mg/kg, iv. The conditions noted are these: in vivo. Format: ADME, organism-based. Further details: dose 10 mg/kg, time infinity, route intravenous.
Another series can be described thus: cells. The conditions noted are these: Mus musculus, BaF3, 72 h.
Series [11] concerns K562. As to the kind of experiment: Antitumor activity against human K562 cells expressing wild type Bcr-Abl xenografted in po dosed mouse assessed as tumor growth inhibition administered qd for 16 days. Type of series: functional, organism-based.
The nature of series [12]: Cell cycle arrest in mouse BA/F3 cells expressing Bcr-Abl T315I mutant assessed as accumulation at G0/G1 phase at 100 nM after 24 hrs using propidium iodide staining by flow cytometry (reference value: 51.92%). Type of series: functional, cell-based. The conditions noted are these: BaF3.
Series [13] relates to K562. As to the kind of experiment: Induction of apoptosis in human K562 cells expressing wild type Bcr-Abl assessed as early apoptotic cells after 24 hrs using annexin-V/7-AAD staining by FACS analysis. Format: functional, cell-based.
Series [14] concerns BaF3. Kind of series: Induction of apoptosis in mouse BA/F3 cells expressing Bcr-Abl T315I mutant assessed as early apoptotic cells after 24 hrs using annexin-V/7-AAD staining by FACS analysis. Type of series: functional, cell-based.
Another series deals with Mus musculus. Kind of series: Toxicity in human K562 cells expressing wild type Bcr-Abl xenografted mouse assessed as mortality at 3.3 to 10 mg/kg, po qd for 16 days. Format: organism-based. Conditions: in vivo, 384 h.
Series [15] concerns BaF3. Kind of series: Induction of apoptosis in mouse BA/F3 cells expressing Bcr-Abl T315I mutant assessed as early apoptotic cells at 4 nM after 24 hrs using annexin-V/7-AAD staining by FACS analysis (reference value: 4.6%). Type of series: functional.
The test system of series [16] is K562. Kind of series: Cell cycle arrest in human K562 cells expressing wild type Bcr-Abl assessed as accumulation at G0/G1 phase at 4 nM after 24 hrs using propidium iodide staining by flow cytometry (reference value: 64.03%). Format: functional.
Series [17] addresses Bcr/Abl fusion protein (Homo sapiens, UniProt P00519, T315I). Type of series: protein assay.

Molecules are shown by their SMILES. The source made the active and inactive calls. The rule behind the calls is not given here.

Consider `Cc1cn(-c2cc(NC(=O)c3ccc(C)c(C#Cc4cnc(NC5CC5)nc4)c3)cc(C(F)(F)F)c2)cn1`, for which the result with K562 [1] and in the series with BaF3 [6] was Active. Further, in series [2], the inhibition result is “Active”. Further, the Activity was 58.9% in [3]; “Dose-dependent effect” in the series on BaF3 [10]; 67.2% in series [12]; “Dose-dependent effect” with K562 [13]; “Dose-dependent effect” with BaF3 [14]; “Non-toxic” in the series with Mus musculus. Further, the Activity in the series with BaF3 [15] came to 5.8%; in the series with K562 [16] it was 85.99%. Besides, the IC50 against Bcr/Abl fusion protein [4] was found to be 5 nM; in “cells”, 50 nM; at Bcr/Abl fusion protein [17] it was 9 nM. Moreover, the result in the series on K562 [5] was inactive. Further, the inhibition result in [7], in series [8] and in [9] was “inactive” in each case. The molecule also gave an AUC in the series on Rattus norvegicus of 285187 µg/L/h. Further, in the series with K562 [11], the “growth inhibition (GI)” value was “Dose-dependent effect”.
